Measured values taken from patent US20260231913A1, “CANCER MODEL ANIMAL AND METHOD FOR PRODUCING SAME” (ORBIO Corporation, priority 2023, published 2026).
“Also recorded” adds a separate entry of the source.

Test system: insulinoma cells MIN 6 cultured with L-glucose
Assay: Screening of substances that have anticancer effect in mice with intraperitoneally transplanted, L-glucose-cultured insulinoma cells MIN6
Format: in vivo, mouse
Method: Not only human cancer cells A549 but also mouse insulinoma cells MIN6 can be successfully cultured with the L-glucose medium. Mouse insulinoma cells MIN6 were cultured with the D-glucose medium. At a stage where the cells proliferated sufficiently, the medium was changed to the L-glucose medium. Subsequently, the medium change was performed frequently over 2 to 3 days. After almost all dead cells were confirmed to be removed, half the amount of the medium was changed every other day. The MIN6 cells were passaged once or twice using the L-glucose medium. After the culture for 8 to 11 days, the MIN 6 cells were trypsinized to form a cell suspension, which was transplanted at 5×10^6 cells (100 μL)/mouse subcutaneously into the right thigh of mice or at 1.0×10^5 cells (20 μL)/mouse into the abdominal cavity of mice without using Matrigel. As a control, MIN6 cells cultured with the normal D-glucose medium were also transplanted into mice. Because of rapid growth in the D-glucose medium, MIN6 cells were cultured with the D-glucose medium for 6 to 7 days and then transplanted at the same density as that of L-glucose-cultured cells subcutaneously into the right thigh of mice.
A method of screening substances that have anticancer effect was examined using, as a test substance, 2-deoxy-2-(2-oxo-2H-chromen-7-yl) amino-L-glucose (hereinafter referred to as “CLG”) (Japanese Patent No. 6566348), which is a molecule having a 7-OH-cuoumarin moiety bonded to L-glucose via a nitrogen atom.
On day 0, insulinoma cells MIN 6 cultured with L-glucose were intraperitoneally transplanted into 32 mice (four groups each including 8 mice). On day 1, the following groups were prepared: • 8 mice that were intraperitoneally administered every day until day 4 (over 4 minimum days) with a saline solution of CLG at a concentration of 53 mg/kg expected to be safe (CLG administration group); • 8 mice that were intraperitoneally administered only with a CLG-free saline every day until day 7 (over 7 days) (saline administration group); and • 8 mice that were intraperitoneally administered every day until day 7 (over 7 days) with 5-FU (which is used as a standard treatment for pancreatic cancer in Japan and the Europe and also used for treatment of neuroendocrine tumors such as insulinoma) at a high concentration of 25 mg/kg acceptable for nude mice (5-FU administration group).
All mice were euthanized at month 5 and subjected to pathological autopsy.

Compound: O=c1[nH]cc(F)c(=O)[nH]1 [5-FU, reference compound]
- pathological finding in individual mice (25 mg/kg intraperitoneally every day, day 1 to day 7, 8 mice): large, highly-atypical, significant liver metastasis with high malignancy; also recorded: invasive cancer in the smooth muscle around the transverse colon
- mice likely to have worsened conditions, dissected on day 10 and each found to have a tumor (25 mg/kg intraperitoneally every day, day 1 to day 7, of 8 mice, day 10): 3 mice

Compound: 2-deoxy-2-(2-oxo-2H-chromen-7-yl) amino-L-glucose [CLG]
- share of mice with normal blood sugar levels and no tumor (8 mice, 53 mg/kg intraperitoneally, day 1 to day 4, month 5): 50%
- overall anticancer effect in vivo (administered only for 4 days): significant effect in vivo
- mice that maintained normal blood sugar levels until the final euthanasia, with no tumor on dissection (of the 8 mice, 53 mg/kg intraperitoneally every day, day 1 to day 4, euthanasia at month 5): 4 mice
- mice with a malignant tumor classifiable as neuroendocrine carcinoma (NEC) in the abdominal cavity (of the 8 mice, pathological examination of whole-body sections): one
- onset of reduction in blood sugar level compared with the saline administration group (remaining 4 of the 8 mice): one week later
- necrosis of the intraperitoneal tumor (the one mouse with a malignant tumor): at least 90%
